Results reported in paper PMC9516563 (JACS Au, 2022).

Key:
[1] = Liposome dye leakage assay; settings: read-out: liposome EC50 (dye leakage); 200 nm liposomes filled with 50 mM carboxyfluorescein, 30 min incubation
[2] = test system: SARS-CoV-2; format: cell-based, SARS-CoV-2 isolate BetaCoV/France/IDF0372/2020
[3] = test system: SARS-CoV-2 spike pseudoparticles; format: cell-based; settings: read-out: IC50 against SARS-CoV-2 spike-mediated transduction
[4] = test system: SARS-CoV-2 virions; parameters: species or system SARS-CoV-2 isolate BetaCoV/France/IDF0372/2020
[5] = test system: IAV; format: cell-based, Influenza strain A/PR/8/34 (H1N1; PR8); settings: read-out: IAV IC50

## O=C(O)COc1c2c(c(OCC(=O)O)c3c1C1CC3c3cc4c(cc31)C1CC4c3ccccc31)C1CC2c2cc3c(cc21)C1CC3c2ccccc21 [CLR05]
[1]
  EC50: 121 µM
[2]
  inhibition of virus infection: ~70%
[2]; read-out: SARS-CoV-2 IC50
  IC50: 167 µM
[3]
  IC50: 33 µM
[4]
  morphology of treated SARS-CoV-2 virions (TEM): largely disrupted
[5]
  IC50: 70.3 µM
